Measurements reported in patent EP2077260B1, “AMIDE COMPOUND OR SALT THEREOF, AND BIOFILM FORMATION INHIBITOR, BIOFILM REMOVER AND BACTERICIDE EACH USING THE AMIDE COMPOUND OR SALT THEREOF” (The University of Tokyo, priority 2006, dated 2008).
Converted amounts (≈) assume the structure as drawn. Where two headings read alike, the source gives them in different places.

Legend:
[1] = test system: Pseudomonas aeruginosa (gfp expression PAO1-strain); assay: Evaluation test for biofilm formation inhibition effect against Pseudomonas aeruginosa (flow cell system, fluorescence confocal microscope); type: cell-based; conditions: test liquid 100µM; observed up to 84 hours; compared with control test liquid (huge, thick biofilm)
Method: With the flow cell system shown in FIG. 1, an inhibitory effect against biofilm formation by Pseudomonas aeruginosa was evaluated for each of the amide compounds produced in Production Examples 1, 3, 5, 6 and 7 (Compounds 1a-1, 1b-1, 1c-1, 1c-2, 1d-1), and for each of Comparative Compounds (Comparative Example) 1 to 3 denoted by the following formulas. [drawing 20] [drawing 21] [drawing 22]
A culture medium bottle (1), a peristaltic pump (2), a glass cell (4) and a waste fluid bottle (5) are connected via a silicon tube (6) so that a culture medium (9) is supplied to the glass cell (4) from the culture medium bottle (1) using the peristaltic pump (2). The system includes an air removal section (3) between the peristaltic pump (2) and a turncock (7a), for removing the entrained air. All instruments in the flow cell system are sterilized using gamma-rays or an autoclave.
As specifically described later, the inhibitory effect against biofilm formation of each of the amide compounds is examined in the following manner.. Bacteria are cultured in a glass cell (4) to grow a biofilm on the inner wall of the cell, and a test liquid containing one of the amide compounds is applied to the biofilm. Then the state of the biofilm is observed to evaluate the inhibitory effect against biofilm formation of the compound using a fluorescence confocal microscope (Leica TCS SP2: product of Leica). […]

[2] = test system: Escherichia coli ATCC 25922; conditions: Publicly-known data, CLSI(M100-S16)2006 liquid dilution method; cited from earlier work
[3] = test system: Staphylococcus aureus ATCC 29213; conditions: Publicly-known data, CLSI(M100-S16)2006 liquid dilution method; cited from earlier work
[4] = test system: Pseudomonas aeruginosa ATCC 27853; conditions: Publicly-known data, CLSI(M100-S16)2006 liquid dilution method; cited from earlier work
[5] = test system: Staphylococcus aureus ATCC 29213; assay: Evaluation test for disinfecting effect, broth dilution method CLSI(M7-A7)2006; type: cell-based; conditions: 37°C, 18 hours
Excerpt: (§1) The following test compounds were examined for the disinfecting activities against Pseudomonas aeruginosa, E.. Coli and staphylococcus aureus, according to a broth dilution method of "CLSI(M7-A7)2006" (Clinical and Laboratory Standards Institute, M7-A7, Methods for Dilution Antimicrobial Susceptibility Tests for Bacteria That Grow Aerobically; Approved Standard-Seventh Edition, 2006),
(§2) • Pseudomonas aeruginosa PAO1 • Pseudomonas aeruginosa ATCC 27853 • Escherichia coli ATCC 25922 • Staphylococcus aureus ATCC 29213 • Staphylococcus aureus Methicillin resistant (MRSA) ATCC 43300
(§3) Each of above-mentioned bacteria was inoculated in a TSB culture medium (Bacto TSB Broth, product of BD) for overnight cultivation at 37°C. The culture solution was applied to a TSB agar plate for about a 20-hour cultivation to form colonies. Three to five colonies were taken from the agar plate, and an average colony of them was inoculated in a 4mL TSB culture medium.. The colony was cultivated at 35°C until the number of microorganisms became 1 × 10^8 to 2 x 10^8 CFU/mL. The number of microorganisms with time was found by measuring changes in absorbency at 590nm of culture solution with time. When the turbidity became equivalent to 0.5 McFarland standard, it was determined that the number of microorganisms reached the target level = 1 × 10^8 to 2 × 10^8 CFU/mL.
(§4) The bacillus culture solution thus obtained was diluted 10-fold within 15 minutes, and a 5µL portion was inoculated in each well of an evaluation 96-well microplate. This 96-well microplate was a sterilized 96-well microplate with U-shaped bottoms (Falcon 35-3918: product of BD), and each well was filled with a 100µL portion of MH culture medium (BBL MH Broth: product of BD). Within 15 minutes after inoculation of the bacillus culture solutions, the test compounds were supplied to the well in a manner of 2-fold graded dilution. The cultivation was then carried out at 37°C for 18 hours.
(§5) The MIC was determined as follows. "S (susceptible)" indicates a concentration which caused 80% or more reduction in the diameter of the aggregation deposited in the bottom of the well, compared to when the test liquid is not used. "R (Resistant)" indicates a concentration that caused less than 80% reduction in diameter. The reduction was measured visually.. "I(Intermediate)" indicates a concentration that cannot be measured visually

[6] = test system: Escherichia coli ATCC 25922; assay: as above; type: cell-based; conditions: 37°C, 18 hours
Excerpt: as §1, §2, §3, §4, §5

[7] = test system: Staphylococcus aureus Methicillin resistant (MRSA) ATCC 43300; assay: as above; type: cell-based; conditions: 37°C, 18 hours
Excerpt: as §1, §2, §3, §4, §5

[8] = test system: Pseudomonas aeruginosa PAO1; assay: as above; type: cell-based; conditions: 37°C, 18 hours
Excerpt: as §1, §2, §3, §4, §5

[9] = test system: Pseudomonas aeruginosa ATCC 27853; assay: as above; type: cell-based; conditions: 37°C, 18 hours
Excerpt: as §1, §2, §3, §4, §5

[10] = test system: Porphyromonas gingivalis 381-strain (clinical strain); assay: Evaluation test for biofilm formation inhibition effect against periodontitis pathogenic bacteria (flow cell system, HA disks, turbidity); type: cell-based; conditions: Porphyromonas gingivalis, 336 h; 100µM; 14 days; relative to control test liquid (Mean Comparison OD Value); read-out: Biofilm Formation Inhibition Rate(%)
Method: As with Experiment Example 1, using the flow cell system of FIG. 1, an inhibitory effect against biofilm formation by periodontitis pathogenic bacteria was evaluated for each of the amide compounds produced in Production Examples 1, 3, 5, and 6 (Compounds 1a-1, 1b-1, 1c-1, 1c-2).
Periodontitis pathogenic bacteria Porphyromonas gingivalis 381-strain (clinical strain) was used..
A GAM culture medium containing hemin 5µg/L and menadione 1µg/L was used.
The 381-strain was inoculated in the GAM culture medium, and cultivated until stationary phase (OD550=1.8). Then the culture medium was diluted 20-fold by a fresh GAM culture medium containing the above-mentioned substances.
The test liquid was prepared by dissolving 100µM of each of the Compounds 1a-1, 1b-1, 1c-1, or 1c-2 according to Production Examples 1, 3, 5 and 6 and 100µM of Comparative Compounds 1 and 2 as comparative examples in dimethyl sulfoxide (DMSO), and supplying the resulting DMSO solutions to the above-mentioned bacterial suspensions so that the concentration of each compound becomes 0.1%(v/v).
A DMSO not containing the compound was used as a control test liquid.
The glass cell (4) of the flow cell system (see FIG. 1) was replaced with a stainless cell (3 x 7 x 120mm), and 10 hydroxyapatite (HA) disks (6mm in diameter, 1mm in thickness) were placed in the cell. The HA disks had been subjected to salivary treatment overnight. Each of the test liquids and control test liquids was circulated in the system at a flow rate of 8mL/min for 14 days, Note that the test liquids and the control test liquids were replaced with fresh liquids every two days.
After the cultivation, the HA disks were dipped in 300µL of sterile distilled water, and treated by supersonic wave for 30 minutes at 4°C, The biofilms formed in the HA disks were peeled off and suspended in distilled water. Then, 100µL of the suspension liquid was measured for the turbidity with an absorptiometer (C07500 colorimeter, product of Funakoshi) (measurement wavelength = 550 nm).
A mean OD was found based on the resulting OD values, excluding the minimum and maximum values, Also, a mean value of the turbidities for the Control Test Liquids was found in the same manner as the control mean OD value. A biofilm formation inhibition rate (Inhibition Rate) was found by the following formula. Biofilm Formation Inhibition Rate (%) = […] [formula]

[11] = ATCC29213, I (Intermediate): concentration that cannot be measured visually, read-out: MIC (µg/mL) I
[12] = ATCC29213, R (Resistant): concentration that caused less than 80% reduction in diameter of the aggregation, read-out: MIC (µg/mL) R
[13] = ATCC29213, S (susceptible): concentration which caused 80% or more reduction in diameter of the aggregation, read-out: MIC (µg/mL) S
[14] = ATCC25922, I (Intermediate): concentration that cannot be measured visually, read-out: MIC (µg/mL) I
[15] = ATCC25922, R (Resistant): concentration that caused less than 80% reduction in diameter of the aggregation, read-out: MIC (µg/mL) R
[16] = ATCC25922, S (susceptible): concentration which caused 80% or more reduction in diameter of the aggregation, read-out: MIC (µg/mL) S
[17] = I (Intermediate): concentration that cannot be measured visually, read-out: MIC (µg/mL) I
[18] = R (Resistant): concentration that caused less than 80% reduction in diameter of the aggregation, read-out: MIC (µg/mL) R
[19] = S (susceptible): concentration which caused 80% or more reduction in diameter of the aggregation, read-out: MIC (µg/mL) S
[20] = PAO1, I (Intermediate): concentration that cannot be measured visually, read-out: MIC (µg/mL) I
[21] = PAO1, R (Resistant): concentration that caused less than 80% reduction in diameter of the aggregation, read-out: MIC (µg/mL) R
[22] = PAO1, S (susceptible): concentration which caused 80% or more reduction in diameter of the aggregation, read-out: MIC (µg/mL) S
[23] = ATCC27853, I (Intermediate): concentration that cannot be measured visually, read-out: MIC (µg/mL) I
[24] = ATCC27853, R (Resistant): concentration that caused less than 80% reduction in diameter of the aggregation, read-out: MIC (µg/mL) R
[25] = ATCC27853, S (susceptible): concentration which caused 80% or more reduction in diameter of the aggregation, read-out: MIC (µg/mL) S

MIC [5, 11] | MIC [5, 12] | MIC [5, 13] | MIC [6, 14] | MIC [6, 15] | MIC [6, 16] | MIC [7, 17] | MIC [7, 18] | MIC [7, 19] | MIC [8, 20] | MIC [8, 21] | MIC [8, 22] | MIC [9, 23] | MIC [9, 24] | MIC [9, 25] | Structure (SMILES) | state of biofilm formation [1] | MIC (µg/mL) from M100-S16 [2] | MIC (µg/mL) from M100-S16 [3] | MIC (µg/mL) from M100-S16 [4] | inhibition at 100 µM [10]
– | – | – | – | – | – | – | – | – | – | – | – | – | – | – | CCCCCCCCCCCC(=O)NN1CCCCC1 [Compound 1d-1, N-(piperidin-1-yl) dodecanoyl amide] | such biofilm formation was not observed | – | – | – | –
0.25 µg/mL (≈ 0.535 µM) | ≤ 0.125 µg/mL | ≥ 0.5 µg/mL | 0.5 µg/mL (≈ 1.07 µM) | ≤ 0.25 µg/mL | ≥ 1 µg/mL | 128 µg/mL (≈ 274 µM) | ≤ 64 µg/mL | ≥ 256 µg/mL | 0.5 µg/mL (≈ 1.07 µM) | ≤ 0.25 µg/mL | > 1 µg/mL | 0.5 µg/mL (≈ 1.07 µM) | ≤ 0.25 µg/mL | ≥ 1 µg/mL | NC[C@H]1O[C@H](O[C@H]2[C@H](O)[C@@H](O[C@H]3O[C@H](CO)[C@@H](O)[C@H](N)[C@H]3O)[C@H](N)C[C@@H]2N)[C@H](N)C[C@@H]1O [TOB, Tobramycin] | – | 0.25 to 1 µg/mL | 0.12 to 1 µg/mL | 0.25 to 1 µg/mL | –
4 µg/mL (≈ 7.32 µM) | ≤ 2 µg/mL | ≥ 8 µg/mL | 0.125 µg/mL (≈ 0.229 µM) | ≤ 0.063 µg/mL | ≥ 0.25 µg/mL | 8 µg/mL (≈ 14.6 µM) | ≤ 4 µg/mL | ≥ 16 µg/mL | 1 µg/mL (≈ 1.83 µM) | ≤ 0.5 µg/mL | ≥ 2 µg/mL | 2 µg/mL (≈ 3.66 µM) | ≤ 1 µg/mL | ≥ 4 µg/mL | CC(C)(O/N=C(\C(=O)N[C@@H]1C(=O)N2C(C(=O)[O-])=C(C[n+]3ccccc3)CS[C@H]12)c1csc(N)n1)C(=O)O [CAZ, Ceftazidime] | – | 0.06 to 0.5 µg/mL | 4 to 16 µg/mL | 1 to 4 µg/mL | –
– | – | – | – | – | – | – | – | – | – | – | – | – | – | – | CCCCCCCCCC(=O)CC(=O)Nc1ccccc1O [Comparative Compound 1] | the huge, thick biofilm was observed as in the control test | – | – | – | -36%
